According to publication PMC12720774, “Detergents alter the stability and lipid binding properties of the CD1d immunoreceptor” (Protein Science : A Publication of the Protein Society, 2025):
Values joined by “and” are separate entries in the source; they are usually repeats but may differ in a detail not shown here. Identical values can stand only once. Like-named read-outs stand apart in the source and are kept apart here.

What was measured:
[1] = target: T1, AF647‐labeled hCD1d (Homo sapiens, UniProt P15813+P61769); assay: Microscale thermophoresis (MST) binding assay
T1 construct: TEV protease cleavage site ENLYFQS (C); BirA biotinylation site (C); His7 (C); made in house; host or cells: TurboCHO cells (GenScript)
Source text: The experimental limitations of ITF, such as low instrument sensitivity, high sample consumption, signal overlap with some ligands, and low throughput (Fossum et al., [2023]), made it necessary to employ alternative, complementary assays to quantify detergent binding to hCD1d. […] MST measures the diffusion of fluorescent molecules in response to microscopic temperature gradients (Seidel et al., [2013]). When a protein forms a complex with a ligand, changes in hydrodynamic properties, charge, or solvation energy alter its thermophoretic behavior, allowing detection of binding events. To perform MST experiments, Alexa Fluor 647 (AF647) dye was covalently attached to the primary amines of hCD1d via standard N‐hydroxysuccinimide coupling chemistry (Anderson et al., [1964]). The concentration of AF647‐hCD1d was kept constant, and the change in MST signal was measured as a function of increasing detergent concentration (Figure S3). Like ITF, any lipid or detergent that destabilizes CD1 can also alter the MST signal since unfolding changes the protein's Stokes radius and its thermophoretic behavior. […] This is why we compare MST results with ITF and nanoDSF, as described below.
For MST, hCD1d was fluorescently labeled with AF647‐NHS Ester (Invitrogen #A20006). Briefly, a 10 mM stock of AF647‐NHS was prepared in anhydrous DMSO. Then, 100 μL of 50 μM hCD1d in 1X PBS pH 7.4 was mixed with 1 μL of 10 mM AF647‐NHS (1:2 molar ratio of protein: dye). The mixture was allowed to react for 1 h in the dark at 25°C. Unreacted dye was removed from the protein–dye conjugate by performing size exclusion chromatography in the dark with a Superdex 200 Increase 10/300 GL column at a flow rate of 0.5 mL/min in SEC buffer (100 mM NaCl, 20 mM sodium phosphate, pH 7.2). The degree of labeling was determined by a NanoDrop spectrophotometer at A647 nm (dye absorbance) and A280 nm (hCD1d absorbance). The degree of labeling was determined from the ratio of dye concentration to protein concentration. The degree of labeling was ~75%.
MST experiments were performed using a Monolith NT.115 instrument (NanoTemper Technologies) using Monolith standard capillaries and the red excitation laser setup. The following settings were applied for all MST experiments: excitation power: 30%–50%, MST power: medium, before MST time: 3 s, MST on time (IR laser): 20 seconds, and after MST time: 1 s. MST measurements were analyzed using the Monolith Affinity Analysis software v2.3 and exported for plotting in GraphPad Prism v10.1. Three replicates were performed, and data are presented as the mean ± standard deviation (n = 3).
MST measurements of 100 nM AF647‐hCD1d were acquired in the absence and presence of detergents in 1X PBS pH 7.4 at 25°C. Prior to data acquisition, hCD1d and detergent or lipid samples were incubated at 37°C overnight (~12 h) to simulate in vitro and in vivo loading conditions. […] For 18:1 LPC experiments: MST data of 100 nM AF647‐hCD1d were acquired in the absence and presence of 18:1 LPC in 1X PBS pH 7.4 at 25°C.

[2] = approximate, ref Anatrace catalogue, cited from earlier work
[3] = target: T2, recombinant human CD1d ectodomain/β2m complex (hCD1d) (Homo sapiens, UniProt P15813+P61769); assay: Intrinsic tryptophan fluorescence (ITF) binding assay
T2 construct: TEV protease cleavage site ENLYFQS (C); BirA biotinylation site (C); His7 (C); made in house; host or cells: TurboCHO cells (GenScript)
Method: For ITF assays, the concentration of hCD1d was kept constant, and intrinsic Trp fluorescence (excitation at 285 nm, emission at 335 nm) was measured as a function of increasing detergent concentration (Fossum et al., [2023]) (Figure S2). The change in relative fluorescence intensity (F − F 0/F 0) provides an indication of binding. […] This was due to limited detergent solubility and decreased hCD1d stability in the presence of a large excess of detergent (see below). […] SDS was the exception, for which Trp fluorescence of hCD1d decreased with added detergent. This could indicate a unique conformational change or destabilization of the protein.
ITF spectra were recorded from 300 to 500 nm using a Horiba FL3‐21 Fluorometer with the excitation wavelength of 285 nm and excitation/emission slits of 6.2 nm. Fluorescence spectra of 50 to 100 nM hCD1d were acquired in the absence and presence of detergents in 1X PBS pH 7.4 at 25°C. Prior to data acquisition, hCD1d and detergent or lipid samples were incubated at 37°C overnight (~12 h) to simulate in vitro and in vivo loading conditions. […] For 18:1 LPC experiments, fluorescence spectra of 100 nM hCD1d were acquired in the absence and presence of 18:1 LPC in 1X PBS pH 7.4 at 25°C. […] For all ITF experiments, the change in fluorescence signal (F − F 0/F 0) was determined at 335 nm. Three replicates were performed, and data are presented as the mean ± standard deviation (n = 3). K D values were fitted with non‐linear regression in GraphPad Prism v10.1.

T2 sequence (P61769+P15813 fused): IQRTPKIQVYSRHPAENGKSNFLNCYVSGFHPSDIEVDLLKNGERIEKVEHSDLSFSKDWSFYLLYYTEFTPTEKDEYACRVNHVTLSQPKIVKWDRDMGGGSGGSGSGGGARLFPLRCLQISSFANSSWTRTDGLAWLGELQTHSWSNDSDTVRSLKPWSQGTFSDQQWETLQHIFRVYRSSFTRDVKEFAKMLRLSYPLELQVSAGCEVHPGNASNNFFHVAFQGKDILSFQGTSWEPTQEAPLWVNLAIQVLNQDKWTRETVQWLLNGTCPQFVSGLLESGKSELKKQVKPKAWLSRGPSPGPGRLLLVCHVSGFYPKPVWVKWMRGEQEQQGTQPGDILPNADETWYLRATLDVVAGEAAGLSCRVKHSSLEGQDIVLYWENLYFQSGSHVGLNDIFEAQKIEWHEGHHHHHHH
T1 sequence (P61769+P15813 fused): as above

Tween 80
Fnorm (rep 1-3) ([1]; 6.10352e-9 M detergent): 805.067 ‰ and 809.857 ‰ and 804.507 ‰ | Fnorm (rep 1-3) ([1]; 1.2207e-8 M detergent): 806.458 ‰ and 809.351 ‰ and 805.026 ‰ | Fnorm (rep 1-3) ([1]; 2.44141e-8 M detergent): 805.306 ‰ and 809.655 ‰ and 805.09 ‰ | Fnorm (rep 1-3) ([1]; 4.88281e-8 M detergent): 807.116 ‰ and 806.609 ‰ and 806.1 ‰ | Fnorm (rep 1-3) ([1]; 9.76563e-8 M detergent): 804.905 ‰ and 807.619 ‰ and 802.759 ‰ | Fnorm (rep 1-3) ([1]; 1.95313e-7 M detergent): 804.684 ‰ and 807.405 ‰ and 803.094 ‰ | Fnorm (rep 1-3) ([1]; 3.90625e-7 M detergent): 805.673 ‰ and 808.266 ‰ and 805.393 ‰ | Fnorm (rep 1-3) ([1]; 7.8125e-7 M detergent): 808.872 ‰ and 807.822 ‰ and 807.967 ‰ | Fnorm (rep 1-3) ([1]; 1.5625e-6 M detergent): 807.024 ‰ and 810.305 ‰ and 805.453 ‰ | Fnorm (rep 1-3) ([1]; 3.125e-6 M detergent): 820.597 ‰ and 825.116 ‰ and 819.282 ‰ | Fnorm (rep 1-3) ([1]; 6.25e-6 M detergent): 847.228 ‰ and 846.294 ‰ and 841.909 ‰ | Fnorm (rep 1-3) ([1]; 1.25e-5 M detergent): 846.069 ‰ and 855.71 ‰ and 840.031 ‰ | Fnorm (rep 1-3) ([1]; 2.5e-5 M detergent): 844.894 ‰ and 848.667 ‰ and 837.578 ‰ | Fnorm (rep 1-3) ([1]; 5e-5 M detergent): 846.685 ‰ and 845.769 ‰ and 838.247 ‰ | Fnorm (rep 1-3) ([1]; 0.0001 M detergent): 846.112 ‰ and 846.019 ‰ and 837.99 ‰ | Fnorm (rep 1-3) ([1]; 0.0002 M detergent): 847.908 ‰ and 844.822 ‰ and 840.824 ‰ | Kd ([1]; Figure 5B, detergent binding to hCD1d, read-out: MST - Kd (uM) average): 3.24 µM | Kd ([1]; detergent with 100 nM AF647‐labeled hCD1d, 25°C, apparent, read-out: K D (MST)): 3.2 ± 0.1 µM | CMC [2]: 12 µM | CMC ([2]; weight/volume): 0.0016% | F-F0/F0 (rep 1-3) ([3]; 6.1035e-9 M detergent): 0 | F-F0/F0 (rep 1-3) ([3]; 7.8125e-7 M detergent): 0.1677 and 0.1078 and 0.1575 | F-F0/F0 (rep 1-3) ([3]; 1.5625e-6 M detergent): 0.2804 and 0.1624 and 0.168 | F-F0/F0 (rep 1-3) ([3]; 3.125e-6 M detergent): 0.6451 and 0.4306 and 0.4698 | F-F0/F0 (rep 1-3) ([3]; 6.25e-6 M detergent): 0.9699 and 0.8276 and 0.7611 | F-F0/F0 (rep 1-3) ([3]; 1.25e-5 M detergent): 0.863 and 0.6745 and 0.8384 | F-F0/F0 (rep 1-3) ([3]; 2.5e-5 M detergent): 1.041 and 0.837 and 0.8177 | F-F0/F0 (rep 1-3) ([3]; 5e-5 M detergent): 1.186 and 0.8687 and 0.9274 | F-F0/F0 (rep 1-3) ([3]; 0.0001 M detergent): 1.309 and 1.057 and 0.8857 | F-F0/F0 (rep 1-3) ([3]; 0.0002 M detergent): 1.646 and 1.2423 and 1.107 | Kd ([3]; Figure 5A, detergent binding to hCD1d, read-out: ITF - Kd (uM) average): 4.59 µM | Kd ([3]; detergent with 100 nM hCD1d, 25°C, 1X PBS pH 7.4, apparent, read-out: K D (ITF)): 4.6 ± 0.9 µM
